This passage reports IC50 results from patent publication US8962616B2, “Heterocyclic substituted hexahydropyrano[3,4-d][1,3]thiazin-2-amine compounds” (Pfizer Inc., priority 2012, dated 2015).

What is called IC50 is the midpoint of a concentration-inhibition curve. A lower IC50 goes with higher potency.

The target in one experiment is BACE1 enzyme (Homo sapiens (Human), UniProt P56817). Briefly: BACE1 Cell-Free Assay (fluorescence polarization, synthetic APP substrate). The experiment is classed as biochemical. The following applies: geometric mean of 2-7 determinations (values marked b: single determination). An excerpt:
This assay measures the inhibition of the beta-secretase enzyme as it cleaves a non-native peptide.
A synthetic APP substrate that can be cleaved by beta-secretase having N-terminal biotin and made fluorescent by the covalent attachment of Oregon Green at the Cys residue is used to assay beta-secretase activity in the presence or absence of the inhibitory compounds. […] The BACE1 enzyme is affinity purified material from conditioned media of CHO-K1 cells that have been transfected with a soluble BACE construct (BACE1deltaTM96His). Compounds are incubated in a ½ log dose response curve from a top concentration of 100 μM with BACE1 enzyme and the biotinylated fluorescent peptide in 384-well black plates (Thermo Scientific #4318). BACE1 is at a final concentration of 0.1 nM with a final concentration of peptide substrate of 150 nM in a reaction volume of 30 μL assay buffer (100 mM sodium acetate, pH 4.5 (brought to pH with acetic acid), and 0.001% Tween-20). Plates are covered and incubated for 3 hours at 37° C. The reaction is stopped with the addition of 30 μL of 1.5 μM Streptavidin (Pierce, #21125). After a 10 minute incubation at room temperature, plates are read on a PerkinElmer Envision for fluorescent polarization (Ex485 nm/Em530 nm). The activity of the beta-secretase enzyme is detected by changes in the fluorescence polarization that occur when the substrate is cleaved by the enzyme.
Background: Fluorescence polarisation rises when a labelled molecule tumbles more slowly, as on binding a larger partner.

Experiment [1] deals with H4 human neuroglioma cells over-expressing the wild-type human APP695. The experiment is described as follows: sAPPβ Whole-Cell Assay (in vitro sAPPb assay, ELISA). The experiment is classed as cell-based. The following applies: 18 hours, geometric mean of 2-7 determinations (values marked b: single determination). The procedure:
Whole Cell-Free Assay (In Vitro sAPPb Assay):
H4 human neuroglioma cells over-expressing the wild-type human APP695 are treated for 18 hours with compound in a final concentration 1% DMSO. sAPPβ levels are measured using TMB-ELISA with capture APP N-terminal antibody (Affinity BioReagents, OMA1-03132), wild-type sAPPβ specific reporter p192 (Elan), and tertiary anti rabbit-HRP (GE Healthcare).
(In general: An ELISA detects its analyte on a solid surface through an enzyme-linked reagent.)

The target in another experiment is BACE2 enzyme (Homo sapiens (Human), UniProt Q9Y5Z0). The experiment is described as follows: BACE2 Cell-free Assay (fluorescence polarization, synthetic substrate). It is filed as biochemical. The following applies: single determination. On the procedure: This assay measures the inhibition of the BACE2 enzyme as it cleaves a non-native peptide. A synthetic substrate that can be cleaved by BACE2 having N-terminal biotin and made fluorescent by the covalent attachment of Oregon Green at the Cys residue is used to assay BACE2 activity in the presence or absence of the inhibitory compounds. The substrate is Biotin-[…]-C(Oregon green)-KK-OH. The BACE2 enzyme is available from Enzo Life Sciences (Cat # BML-SE550). Compounds are incubated in a ½ log dose response curve from a top concentration of 100 μM with BACE2 enzyme and the biotinylated fluorescent peptide in 384-well black plates (Thermo Scientific #4318). BACE2 is at a final concentration of 2.5 nM with a final concentration of peptide substrate of 150 nM in a reaction volume of 30 μL assay buffer (100 mM Sodium Acetate, pH 4.5 (brought to pH with acetic acid), and 0.001% Tween-20). Plates are covered and incubated for 3 hours at 37° C. The reaction is stopped with the addition of 30 μL of 1.5 μM Streptavidin (Pierce, #21125). After a 10 minute incubation at room temperature, plates are read on a PerkinElmer Envision for fluorescent polarization (Ex485 nm/Em530 nm). The activity of the beta-secretase enzyme is detected by changes in the fluorescence polarization that occur when the substrate is cleaved by the enzyme.

Structures can show the parent of a compound that is named as a salt.

BACE1 enzyme, sequence (P56817 46-457): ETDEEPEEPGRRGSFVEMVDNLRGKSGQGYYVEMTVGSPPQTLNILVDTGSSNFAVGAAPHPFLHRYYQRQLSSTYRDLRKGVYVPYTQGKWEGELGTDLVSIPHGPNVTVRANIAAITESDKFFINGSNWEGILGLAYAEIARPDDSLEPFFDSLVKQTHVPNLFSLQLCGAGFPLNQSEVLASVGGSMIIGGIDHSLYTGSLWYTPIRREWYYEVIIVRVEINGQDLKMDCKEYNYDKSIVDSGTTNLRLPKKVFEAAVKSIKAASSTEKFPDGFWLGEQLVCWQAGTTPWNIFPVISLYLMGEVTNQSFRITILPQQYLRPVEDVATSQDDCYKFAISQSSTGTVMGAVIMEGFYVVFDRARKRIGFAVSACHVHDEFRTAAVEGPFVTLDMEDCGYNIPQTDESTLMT
BACE2 enzyme, sequence (Q9Y5Z0 63-518): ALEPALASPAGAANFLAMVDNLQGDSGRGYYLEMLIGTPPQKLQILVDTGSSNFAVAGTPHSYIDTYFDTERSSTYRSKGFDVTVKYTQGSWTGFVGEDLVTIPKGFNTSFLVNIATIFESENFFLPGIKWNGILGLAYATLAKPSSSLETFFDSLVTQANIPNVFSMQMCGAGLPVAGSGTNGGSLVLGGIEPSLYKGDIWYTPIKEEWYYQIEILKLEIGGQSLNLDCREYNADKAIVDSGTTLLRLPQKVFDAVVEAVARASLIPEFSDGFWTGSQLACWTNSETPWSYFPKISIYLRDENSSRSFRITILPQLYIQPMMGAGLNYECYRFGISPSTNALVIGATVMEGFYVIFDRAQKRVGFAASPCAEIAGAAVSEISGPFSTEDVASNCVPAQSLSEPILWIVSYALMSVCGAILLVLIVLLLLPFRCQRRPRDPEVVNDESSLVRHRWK

Consider `NC1=N[C@@]2(c3ccc(F)cc3F)CO[C@@H](c3ncco3)C[C@H]2CS1` [Example 1, (4aR,6R,8aS)-8a-(2,4-Difluorophenyl)-6-(1,3-oxazol-2-yl)-4,4-a,5,6,8,8a-hexahydropyrano[3,4-][1,3]thiazin-2-amine], for which the figures for the 50% inhibitory concentration (IC50) (against BACE1 enzyme; in experiment [1]; on BACE2 enzyme) were 511 nM, 32 nM and 619 nM, respectively.
For `Cn1ccc([C@H]2C[C@H]3CSC(N)=N[C@@]3(c3ccc(F)cc3F)CO2)n1` [Example 2, (4aR,6R,8aS)-8a-(2,4-Difluorophenyl)-6-(1-methyl-1H-pyrazol-3-yl)-4,4-a,5,6,8,8a-hexahydropyrano[3,4-][1,3]thiazin-2-amine], the concentration for half-maximal inhibition (IC50) stood at 183 nM against BACE1 enzyme, 17 nM in experiment [1] and 4740 nM at BACE2 enzyme.
For the compound `Cn1nccc1[C@H]1C[C@H]2CSC(N)=N[C@@]2(c2ccc(F)cc2F)CO1` [Example 3, (4aR,6R,8aS)-8a-(2,4-Difluorophenyl)-6-(1-methyl-1H-pyrazol-5-yl)-4,4-a,5,6,8,8a-hexahydropyrano[3,4-d][1,3]thiazin-2-amine], the IC50 is 7780 nM against BACE1 enzyme and 636 nM in experiment [1].
On to `Cc1coc([C@H]2C[C@H]3CSC(N)=N[C@@]3(c3ccc(F)cc3F)CO2)n1` [Example 4, (4aR,6R,8aS)-8a-(2,4-Difluorophenyl)-6-(4-methyl-1,3-oxazol-2-yl)-4,4-a,5,6,8,8a-hexahydropyrano[3,4-][1,3]thiazin-2-amine], for which the half-maximal inhibitory concentration (IC50) at BACE1 enzyme worked out at 84 nM; in experiment [1], 4 nM; on BACE2 enzyme, 273 nM.
With `Cc1cnc([C@H]2C[C@H]3CSC(N)=N[C@@]3(c3ccc(F)cc3F)CO2)o1` [Example 5, (4aR,6R,8aS)-8a-(2,4-Difluorophenyl)-6-(5-methyl-1,3-oxazol-2-yl)-4,4-a,5,6,8,8a-hexahydropyrano[3,4-d][1,3]thiazin-2-amine], the figures for the IC50 (at BACE1 enzyme; in experiment [1]; at BACE2 enzyme) were 473 nM, 23 nM and 1150 nM, respectively.
Take `C[C@H]1SC(N)=N[C@@]2(c3ccc(F)cc3F)CO[C@@H](c3ncco3)C[C@@H]12` [Example 6, (4R,4aR,6R,8aS)-8a-(2,4-Difluorophenyl)-4-methyl-6-(1,3-oxazol-2-yl)-4,4-a,5,6,8,8a-hexahydropyrano[3,4-][1,3]thiazin-2-amine]: the IC50 is 198 nM on BACE1 enzyme, 32 nM in experiment [1] and 2370 nM against BACE2 enzyme.
Take `Cn1cc([C@H]2C[C@H]3CSC(N)=N[C@@]3(c3ccc(F)cc3F)CO2)cn1` [Example 7, (4aR,6R,8aS)-8a-(2,4-Difluorophenyl)-6-(1-methyl-1H-pyrazol-4-yl)-4,4-a,5,6,8,8a-hexahydropyrano[3,4-][1,3]thiazin-2-amine]: the IC50 in experiment [1] was determined as 5 nM; at BACE2 enzyme it was 185 nM.
Regarding `Cc1csc([C@H]2C[C@H]3CSC(N)=N[C@@]3(c3ccc(F)cc3F)CO2)n1` [Example 8, (4aR,6R,8aS)-8a-(2,4-Difluorophenyl)-6-(4-methyl-1,3-thiazol-2-yl)-4,4-a,5,6,8,8a-hexahydropyrano[3,4-][1,3]thiazin-2-amine], the half-inhibitory concentration (IC50) amounted to 260 nM on BACE1 enzyme, 27 nM in experiment [1] and 9720 nM on BACE2 enzyme.
For `Cc1nccc([C@H]2C[C@H]3CSC(N)=N[C@@]3(c3ccc(F)cc3F)CO2)n1` [Example 9, (4aR,6R,8aS)-8a-(2,4-Difluorophenyl)-6-(2-methylpyrimidin-4-yl)-4,4-a,5,6,8,8a-hexahydropyrano[3,4-][1,3]thiazin-2-amine], the IC50 was 583 nM at BACE1 enzyme, 28 nM in experiment [1] and above 100000 nM at BACE2 enzyme.
On to `Cc1nc([C@H]2C[C@H]3CSC(N)=N[C@@]3(c3ccc(F)cc3F)CO2)co1` [Example 11, (4aR,6R,8aS)-8a-(2,4-Difluorophenyl)-6-(2-methyl-1,3-oxazol-4-yl)-4,4-a,5,6,8,8a-hexahydropyrano[3,4-d][1,3]thiazin-2-amine, hydrochloride salt], for which the IC50 amounted to 316 nM against BACE1 enzyme, 34 nM in experiment [1] and 2020 nM against BACE2 enzyme.
As to `Cc1ccnc([C@H]2C[C@H]3CSC(N)=N[C@@]3(c3ccc(F)cc3F)CO2)n1` [Example 12, (4aR,6R,8aS)-8a-(2,4-Difluorophenyl)-6-(4-methylpyrimidin-2-yl)-4,4-a,5,6,8,8a-hexahydropyrano[3,4-][1,3]thiazin-2-amine], the IC50 on BACE1 enzyme came out at 1470 nM; in experiment [1] it was 50 nM.
In the same order, the values of `NC1=N[C@@]2(c3ccc(F)cc3F)CO[C@@H](c3nnco3)C[C@H]2CS1` [Example 14, (4aR,6R,8aS)-8a-(2,4-Difluorophenyl)-6-(1,3,4-oxadiazol-2-yl)-4,4-a,5,6,8,8a-hexahydropyrano[3,4-][1,3]thiazin-2-amine] are 2210 nM and 196 nM.
For the compound `Cc1nc([C@H]2C[C@H]3CSC(N)=N[C@@]3(c3ccc(F)cc3F)CO2)oc1C` [Example 15, (4aR,6R,8aS)-8a-(2,4-Difluorophenyl)-6-(4,5-dimethyl-1,3-oxazol-2-yl)-4,4-a,5,6,8,8a-hexahydropyrano[3,4-d][1,3]thiazin-2-amine], the values for the IC50 (against BACE1 enzyme; in experiment [1]; against BACE2 enzyme) were 112 nM, 7 nM and 2820 nM, respectively.
In the case of `Cc1cc([C@H]2C[C@H]3CSC(N)=N[C@@]3(c3ccc(F)cc3F)CO2)on1` [Example 16, (4aR,6R,8aS)-8a-(2,4-Difluorophenyl)-6-(3-methyl-1,2-oxazol-5-yl)-4,4-a,5,6,8,8a-hexahydropyrano[3,4-][1,3]thiazin-2-amine], the results for the concentration for half-maximal inhibition (IC50) (at BACE1 enzyme; in experiment [1]) were 59 nM and 3 nM, respectively.
As for `NC1=N[C@@]2(c3ccc(F)cc3F)CO[C@@H](c3ccncn3)C[C@H]2CS1` [Example 18, (4aR,6R,8aS)-8a-(2,4-difluorophenyl)-6-(pyrimidin-4-yl)-4,4a,5,6,8,8a-hexahydropyrano[3,4-d][1,3]thiazin-2-amine], the concentration for half-maximal inhibition (IC50) against BACE1 enzyme was found to be 390 nM; in experiment [1] (Homo sapiens), 28 nM; on BACE2 enzyme, 695 nM.
At BACE1 enzyme, `NC1=N[C@@]2(c3ccc(F)cc3F)CO[C@@H](c3ccn(C4CC4)n3)C[C@H]2CS1` [Example 19, (4aR,6R,8aS)-6-(1-cyclopropyl-1H-pyrazol-3-yl)-8a-(2,4-difluorophenyl)-4,4a,5,6,8,8a-hexahydropyrano[3,4-d][1,3]thiazin-2-amine] registered an IC50 of 444 nM.
Take `NC1=N[C@@]2(c3ccc(F)cc3F)CO[C@@H](c3nc(C(F)(F)F)co3)C[C@H]2CS1` [Example 20, (4aR,6R,8aS)-8a-(2,4-difluorophenyl)-6-[4-(trifluoromethyl)-1,3-oxazol-2-yl]-4,4a,5,6,8,8a-hexahydropyrano[3,4-d][1,3]thiazin-2-amine]: the results for the IC50 (at BACE1 enzyme; in experiment [1] (Homo sapiens); against BACE2 enzyme) were 467 nM, 14 nM and 629 nM, respectively.
As to `NC1=N[C@@]2(c3ccc(F)cc3F)CO[C@@H](c3ncccn3)C[C@H]2CS1` [Example 21, (4aR,6R,8aS)-8a-(2,4-difluorophenyl)-6-(pyrimidin-2-yl)-4,4a,5,6,8,8a-hexahydropyrano[3,4-d][1,3]thiazin-2-amine], the IC50 against BACE1 enzyme was 983 nM; in experiment [1] (Homo sapiens), 44 nM; at BACE2 enzyme it was 3090 nM.
Turning to `Cc1coc([C@H]2C[C@H]3[C@@H](C)SC(N)=N[C@@]3(c3ccc(F)cc3F)CO2)n1` [Example 22, (4R,4aR,6R,8aS)-8a-(2,4-difluorophenyl)-4-methyl-6-(4-methyl-1,3-oxazol-2-yl)-4,4a,5,6,8,8a-hexahydropyrano[3,4-d][1,3]thiazin-2-amine], the figures for the concentration for half-maximal inhibition (IC50) (in experiment [1] (Homo sapiens); against BACE2 enzyme) were 6 nM and 1400 nM, respectively.
On to `NC1=N[C@@]2(c3ccc(F)cc3F)CO[C@@H](c3ncc(F)cn3)C[C@H]2CS1` [Example 23, (4aR,6R,8aS)-8a-(2,4-difluorophenyl)-6-(5-fluoropyrimidin-2-yl)-4,4a,5,6,8,8a-hexahydropyrano[3,4-d][1,3]thiazin-2-amine], for which the results for the IC50 (at BACE1 enzyme; in experiment [1] (Homo sapiens)) were 161 nM and 10 nM, respectively.
